Experimental data reported in ChEMBL document CHEMBL1150056, “5-Epi-isospongiaquinone, a new sesquiterpene/quinone antibiotic from an Australian marine sponge, Spongia hispida” (1992).

Key:
Staphylococcus aureus = test: Antibacterial activity against Staphylococcus aureus assessed per disk; format: functional
Micrococcus sp. = test: Antibacterial activity against Micrococcus sp. assessed per disk; format: functional

SMILES	MIC (Staphylococcus aureus)	MIC (Micrococcus sp.)
CCOC1=CC(=O)C(O)=C(C[C@]2(C)[C@@H](C)CC[C@@]3(C)C(C)=CCC[C@@H]23)C1=O	50 µg	50 µg
COC1=CC(=O)C(O)=C(C[C@]2(C)[C@@H](C)CC[C@@]3(C)C(C)=CCC[C@@H]23)C1=O	20 µg	20 µg
